Source: patent EP4455142A1, “NOVEL INHIBITOR OF QPCTL AND/OR QC” (Scenic Immunology B.V., priority 2023, dated 2024)
Values after ≈ are worked out from the molar mass of the structure shown.

What was measured:
human isoQC = target: T1, human isoQC (Homo sapiens, UniProt Q9NXS2); assay: Assay 1 - isoQC potency, fluorescent enzymatic assay (H-Gln-AMC, coupled pGAPase detection); assay type: biochemical; conditions: recombinant isoQC, 1 hour at 37°C
T1 construct: The Golgi luminal, enzymatically active region of human isoQC (S53-L382; see, e.g., Huang et al., 2011); GST (with enterokinase site) (N, cleaved yes); made in house; host or cells: E. coli
T1 sequence (Q9NXS2 53-382): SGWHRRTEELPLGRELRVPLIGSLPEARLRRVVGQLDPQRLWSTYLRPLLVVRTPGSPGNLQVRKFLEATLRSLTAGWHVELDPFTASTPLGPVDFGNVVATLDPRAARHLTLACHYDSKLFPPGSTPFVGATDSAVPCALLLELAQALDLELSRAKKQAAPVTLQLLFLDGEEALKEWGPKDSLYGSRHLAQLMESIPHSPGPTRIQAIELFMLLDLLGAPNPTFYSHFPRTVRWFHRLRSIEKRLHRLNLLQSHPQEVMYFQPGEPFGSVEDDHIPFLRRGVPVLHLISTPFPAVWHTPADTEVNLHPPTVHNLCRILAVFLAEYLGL
Text: The Golgi luminal, enzymatically active region of human isoQC (S53-L382; see, e.g., Huang et al., 2011) was obtained by expression in E. coli of an N-terminally GST Enterokinase and C-terminally 6xHis tagged construct in the pET41(+) vector and subsequent purification using Ni-NTA IMAC. Enterokinase digestion ensued, followed by another Ni-NTA IMAC purification, Superdex75 based size exclusion and finally a spin concentration using a 10 kDa molecular weight cutoff. The final protein is formulated in 50 mM Tris-HCl, 150 mM NaCl, 50% Glycerol, pH 7.8.
(§1) Pyroglutamylation was measured by conversion of glutamine-4-amino-7-methylcoumarine (H-Gln-AMC, Bachem) to pyroglutamyl-AMC, which is subsequently a specific substrate for pyroglutamylaminopeptidase (pGAPase, Qiagen), releasing free AMC which can be fluorescently detected. For a typical inhibition assay, 7.5 µL aliquots of threefold dilutions of test compound in 50mM Tris pH8 buffer were plated in 384-well plates. 15 µL 20 µM hGln-AMC (diluted from a 40 mM stock dissolved in 25 mM HEPES using 50 mM Tris-HCl 25 pH 8.0) was added to each well. Finally, 7.5 µL, 3 ng/µL recombinant isoQC enzyme was added and the reaction mixture was incubated for 1 hour at 37°C. A 5 minute incubation at 98°C was then performed to denature the isoQC enzyme and stop the reaction.
To detect the amount of pyroglutamyl-AMC formed, a 0.125 U/mL pGAPase enzyme diluted in 50 mM Tris-HCl pH 8.0 containing 10 mM dithiothreitol (DTT) solution was prepared. 25 µL of the pyroglutamylation reaction mixture was transferred into an empty plate and to that, 25 µL of the pGAPase enzyme solution was added. Plates were then incubated for 25 minutes at room temperature before fluorescence readings were taken on an Envision2 plate reader with excitation set at 380 nm and emission at 450 nm. DMSO concentrations during the assay never exceeded 1% and activities were compared to controls containing only the same amount of DMSO and no test compound. Controls were taken along containing pyroglutamylated-AMC (Bachem, dissolved at 10 mM in DMSO) instead of H-Gln-AMC to control for pGAPase inhibition.
(§2) IC50 values are calculated using non-linear regression analysis with GraphPad Prism software.

recombinant QC enzyme = target: T2, recombinant QC enzyme (Homo sapiens, UniProt Q16769); assay: Assay 2 - QC potency, fluorescent enzymatic assay (H-Gln-AMC, coupled pGAPase detection); assay type: biochemical; conditions: 1 hour at 37°C
T2 construct: bacterial expression of residues 33-361 of uniprot ID Q16769, fused to a His tag; His tag (cleaved yes); made in house
T2 sequence (Q16769 33-361): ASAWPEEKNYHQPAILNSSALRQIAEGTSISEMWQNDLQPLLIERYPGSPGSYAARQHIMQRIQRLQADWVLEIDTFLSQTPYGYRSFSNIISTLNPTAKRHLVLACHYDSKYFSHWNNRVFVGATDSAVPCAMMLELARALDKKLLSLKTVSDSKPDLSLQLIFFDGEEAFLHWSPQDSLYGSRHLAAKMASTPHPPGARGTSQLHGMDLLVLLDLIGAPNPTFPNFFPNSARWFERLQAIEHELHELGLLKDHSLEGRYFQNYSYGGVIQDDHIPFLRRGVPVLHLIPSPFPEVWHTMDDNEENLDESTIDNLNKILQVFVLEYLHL
Procedure: After scale-up, expression and lysis, protein was purified by Ni-NTA IMAC, dialysed in the presence of Factor Xa, further purified by Ni-NTA reverse IMAC and finally filtrated for size on a Superdex 200 16/60 column. Final protein was concentrated using a spin concentrator at 10 kDa molecular weight cut-off and formulated in 150 mM NaCl, 50 mM Tris-HCl, 50% Glycerol, pH 8.0.
as §1, with “50 mM” for “50mM”, “h-Gln-AMC” for “hGln-AMC”, “Tris-HCl” for “Tris-HCl 25”, “QC” for “isoQC”
25 µL of the pyroglutamylation reaction mixture was transferred into an empty plate and to that, 25 µL of the pGAPase enzyme solution was added. Plates were then incubated for 25 minutes at room temperature before fluorescence readings were taken on an Envision2 plate reader with excitation set at 380 nm and emission at 450 nm.
Controls were taken along containing pyroglutamylated-AMC (Bachem, dissolved at 10 mM in DMSO) instead of H-Gln-AMC to control for pGAPase inhibition.
as §2

[1] = CACO-2-based cell-permeation and efflux; assay type: in vitro ADME; conditions: human, 2 µM compound, pH 7.40
Procedure: CACO-2 (ATCC, Manassas, VA, USA) monolayers on polyethylene membranes in 96-well insert plates were incubated for 2 hours in 5% C02, 37°C with 2 µM compound tested bidirectionally in duplicate using HBSS with 10 mM HEPES at pH 7.40 ±0.05 as transport buffer. Final DMSO Concentrations were adjusted to less than 1%. All samples were mixed with acetonitrile containing internal standard and centrifuged at 3220 x g for 10 minutes. Subsequently, 100 µL supernatant solution was diluted with 100 µL distilled water for LC/MS/MS analysis. Lucifer yellow rejection assays were applied after the transport assay to ensure CACO-2 cell monolayer integrity.
The apparent permeability coefficient Papp (cm/s) was calculated using the equation: Papp = (dCr/dt) × Vr/(A×CO) [formula] where dCr/dt is the cumulative concentration of compound in the receiver chamber as a function of time (µM/s); Vr is the solution volume in the receiver chamber (0.075 mL on the apical side, 0.25 mL on the basolateral side); A is the surface area for the transport, i.e., 0.0804 cm^2 or the area of the monolayer; CO is the initial concentration in the donor chamber (µM).

[2] = Microsomal stability, mouse (MLM); assay type: in vitro ADME, CD-1 mouse; conditions: mouse liver microsomes, 0.5 mg protein/mL, 1 µM test compound
Procedure: (§3) In order to assess metabolic stability of test compounds, commercially acquired CD-1 mouse liver microsome preparations were incubated in 100 µL at a final concentration of 0.5 mg protein/mL, 1 µM test compound, 0.99% methanol and 0.01% DMSO, after a 10 minute pre-incubation at 37°C and addition of 0.1 volumes 10 U/mL NADPH in 10 mM MgCl2. Reactions were stopped by addition of 300 µL cold acetonitrile containing internal standards at t = 0, 5, 10, 20, 30, and 60 minutes. Samples were submitted to LC-MS/MS analysis subsequently and the slope of linear regression of time versus In(% Remaining concentration) was derived to calculate t½ as t½= In(2) /(-Slope). Then Clint(mic) and Clint(liver) were calculated as follows: CLint(mk) = (0.693)/(In vitro T1/2) · (1)/(mg/mL microsomal protein in reaction system) [formula] CLint(liver) = CLint(mic) · (mg microsomes)/(g liver) · (g liver)/(kg body weight) [formula]
Where 45 mg microsomal protein/g liver and 88 g liver/kg mouse bodyweight were used as standardized parameters for mouse microsomes.

[3] = Microsomal stability, human (HLM); assay type: in vitro ADME; conditions: liver microsomes, 0.5 mg protein/mL, 1 µM test compound
Procedure: as §3
(§4) The same procedure was performed for human microsomes, SD rat microsomes and (beagle) dog microsomes.
Where 45 mg microsomal protein/g liver and 20 g liver/kg human bodyweight were used as standardized parameters for human microsomes.

[4] = Microsomal stability, rat (RLM); assay type: in vitro ADME; conditions: liver microsomes; SD rat microsomes, 0.5 mg protein/mL, 1 µM test compound
Procedure: as §3, §4
Where 45 mg microsomal protein/g liver and 40 g liver/kg rat bodyweight were used as standardized parameters for rat microsomes.

[5] = Microsomal stability, dog (DLM); assay type: in vitro ADME; conditions: liver microsomes; (beagle) dog microsomes, 0.5 mg protein/mL, 1 µM test compound
Procedure: as §3, §4
Where 45 mg microsomal protein/g liver and 32 g liver/kg dog bodyweight were used as standardized parameters for […].

Kinetic solubility = assay type: physicochemical; conditions: aqueous buffer; 50 mM phosphate buffer (pH 7.4), 24 hours at room temperature
Procedure: To assess the solubility of test compounds 10 µL of a 10 mM solution in DMSO was added to the lower chamber of a whatman miniuniprep (PTFE Filter Media with Polypropylene Housing) vial. 490 µL of 50 mM phosphate buffer (pH 7.4) was added to the lower chamber, the samples were vortexed for at least two minutes and then shaken on a shaker for 24 hours at room temperature at the speed of 880 rpm. The samples were then centrifuged for 20 minutes at 4000 rpm, compressed and the filtrates were injected into a HPLC-UV and LC-MS/MS system to calculate the concentration compared to the standard curve using a ACQUITY UPLC BEH C18 1.7 µm 2.1 * 50 mm column.

Work on `O=C1OCC(c2cc(F)cc(C(F)(F)F)c2)N1c1ccc2[nH]cnc2c1` (single isomer, unassigned) [(17)-ent2] yielded an IC50 (human isoQC) of 632 nM, an IC50 (recombinant QC enzyme) of 1080 nM and a Papp A→B at 2 h, 2 µM ([1]; Caco-2, pH 7.4, A2B) of 1.5 ×10⁻⁶ cm/s. For the same molecule, the Papp B→A at 2 h, 2 µM ([1]; Caco-2, pH 7.4, B2A) was 36.8 ×10⁻⁶ cm/s, the CLint scaled at 1 µM [2] was 182 mL/min/kg and the CLint scaled at 1 µM [3] was under 8.6 mL/min/kg. The CLint scaled at 1 µM [4] was 49 mL/min/kg, the CLint scaled at 1 µM [5] was under 13.8 mL/min/kg and the solubility at 24 h (Kinetic solubility) was 39 µM (≈ 14.2 µg/mL).
